Broadly, the Kd is the constant that tells how readily two partners part at equilibrium. A higher Kd goes with a looser complex. As usually defined, the IC50 is the concentration at which inhibition is half-maximal.

Here are results for 11 molecules from US20260070899A1, “N-(2-(4-CYANOTHIAZOLIDIN-3-YL)-2-OXOETHYL)-QUINOLINE-4-CARBOXAMIDES” (AstraZeneca AB, priority 2022, published 2026).

Each structure is given as a SMILES string.

What all share (assay): biochemical
One experiment concerns the target T1, hFAP (M39-A757) (Homo sapiens, UniProt Q12884).
T1 sequence (Q12884 39-757): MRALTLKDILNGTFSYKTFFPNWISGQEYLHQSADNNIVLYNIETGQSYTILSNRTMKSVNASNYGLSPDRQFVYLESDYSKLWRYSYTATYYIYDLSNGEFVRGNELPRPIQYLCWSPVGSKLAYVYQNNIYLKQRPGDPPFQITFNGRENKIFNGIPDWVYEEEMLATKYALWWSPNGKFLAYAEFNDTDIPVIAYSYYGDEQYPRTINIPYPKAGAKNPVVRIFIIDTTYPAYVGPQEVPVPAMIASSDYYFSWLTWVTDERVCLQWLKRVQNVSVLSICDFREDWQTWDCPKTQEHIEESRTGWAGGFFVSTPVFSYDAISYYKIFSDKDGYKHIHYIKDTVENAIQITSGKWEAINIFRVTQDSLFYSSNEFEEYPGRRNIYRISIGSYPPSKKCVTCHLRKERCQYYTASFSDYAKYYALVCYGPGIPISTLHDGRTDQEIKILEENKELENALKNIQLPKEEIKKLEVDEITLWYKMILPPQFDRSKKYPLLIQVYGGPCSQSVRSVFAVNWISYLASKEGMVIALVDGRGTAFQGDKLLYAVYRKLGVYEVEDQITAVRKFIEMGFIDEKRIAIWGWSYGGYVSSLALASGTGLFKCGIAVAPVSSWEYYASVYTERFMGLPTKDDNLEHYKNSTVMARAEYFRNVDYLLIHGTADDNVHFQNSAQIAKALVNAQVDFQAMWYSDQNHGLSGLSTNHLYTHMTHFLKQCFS

The target of experiment [1] is T2, Prolyl endopeptidase, Prolyl Oligopeptidase (hPREP) (Homo sapiens, UniProt P48147).
T2 sequence (P48147 1-710): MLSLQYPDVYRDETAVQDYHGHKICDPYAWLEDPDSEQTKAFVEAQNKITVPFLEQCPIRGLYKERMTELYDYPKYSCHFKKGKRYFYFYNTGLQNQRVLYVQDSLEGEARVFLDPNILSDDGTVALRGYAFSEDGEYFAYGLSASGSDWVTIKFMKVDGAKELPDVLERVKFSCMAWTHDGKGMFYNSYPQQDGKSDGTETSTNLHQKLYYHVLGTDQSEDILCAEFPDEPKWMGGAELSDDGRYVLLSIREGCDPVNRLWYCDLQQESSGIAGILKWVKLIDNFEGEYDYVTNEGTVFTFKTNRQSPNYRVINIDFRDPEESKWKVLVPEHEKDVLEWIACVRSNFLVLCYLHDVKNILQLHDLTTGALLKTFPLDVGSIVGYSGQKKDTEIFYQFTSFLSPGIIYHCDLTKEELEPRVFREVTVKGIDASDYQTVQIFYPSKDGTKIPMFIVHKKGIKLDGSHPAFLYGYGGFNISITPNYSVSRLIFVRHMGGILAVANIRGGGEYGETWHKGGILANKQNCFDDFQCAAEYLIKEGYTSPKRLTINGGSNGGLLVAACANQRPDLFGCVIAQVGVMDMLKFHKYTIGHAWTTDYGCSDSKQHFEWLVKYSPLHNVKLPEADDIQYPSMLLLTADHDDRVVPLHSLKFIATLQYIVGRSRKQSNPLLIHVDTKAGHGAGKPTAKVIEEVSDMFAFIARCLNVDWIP

For another experiment, the target named is T3, hFAP (Homo sapiens, UniProt Q12884).
T3 sequence (Q12884 38-760): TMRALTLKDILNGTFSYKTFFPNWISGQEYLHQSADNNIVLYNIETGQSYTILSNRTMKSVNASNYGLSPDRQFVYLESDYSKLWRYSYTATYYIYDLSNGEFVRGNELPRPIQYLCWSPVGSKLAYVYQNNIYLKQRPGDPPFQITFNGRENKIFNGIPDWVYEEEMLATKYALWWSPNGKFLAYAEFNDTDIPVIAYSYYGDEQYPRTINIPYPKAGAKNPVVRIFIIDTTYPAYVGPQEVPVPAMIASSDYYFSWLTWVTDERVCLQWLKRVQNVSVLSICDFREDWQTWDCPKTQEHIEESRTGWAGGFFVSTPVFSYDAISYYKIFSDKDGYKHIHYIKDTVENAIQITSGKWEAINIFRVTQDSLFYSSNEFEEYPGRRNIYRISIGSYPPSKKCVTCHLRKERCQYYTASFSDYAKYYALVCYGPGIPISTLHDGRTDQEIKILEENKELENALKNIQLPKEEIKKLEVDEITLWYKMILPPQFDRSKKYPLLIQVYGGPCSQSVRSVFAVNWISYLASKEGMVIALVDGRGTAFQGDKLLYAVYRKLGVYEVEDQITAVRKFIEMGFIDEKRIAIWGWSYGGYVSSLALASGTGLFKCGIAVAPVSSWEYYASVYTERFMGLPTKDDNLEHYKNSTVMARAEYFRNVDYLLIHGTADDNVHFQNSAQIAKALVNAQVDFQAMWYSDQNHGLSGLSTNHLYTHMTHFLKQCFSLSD
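For Kd in this document: surface plasmon resonance direct binding to hFAP amine-coupled on a sensor chip, rising compound concentrations by single cycle kinetics, Kd from global fit of interaction models.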

With `N#C[C@@H]1CSCN1C(=O)CNC(=O)c1ccnc2ccc(Oc3ccccc3)cc12` [Example 1, (R)—N-(2-(4-Cyanothiazolidin-3-yl)-2-oxoethyl)-6-phenoxyquinoline-4-carboxamide], at hFAP (M39-A757), the Kd was found to be 330 pM. For the same molecule, the results for the IC50 (in experiment [1]; on hFAP) were 35000 pM and 440 pM, respectively.

As for `COC1(c2ccc3nccc(C(=O)NCC(=O)N4CSC[C@H]4C#N)c3c2)CCOCC1` [Example 66, (R)—N-(2-(4-Cyanothiazolidin-3-yl)-2-oxoethyl)-6-(4-methoxy-tetrahydro-2H-pyran-4-yl)quinoline-4-carboxamide], the equilibrium dissociation constant (Kd) at hFAP (M39-A757) came to 150 pM. Also, the figures for the IC50 (in experiment [1]; against hFAP) were 460000 pM and 150 pM, respectively.

Consider `Cc1ccc2nccc(C(=O)NCC(=O)N3CSC[C@H]3C#N)c2c1` [Example 28, (R)—N-(2-(4-cyanothiazolidin-3-yl)-2-oxoethyl)-6-methylquinoline-4-carboxamide], for which the dissociation constant Kd at hFAP (M39-A757) came out at 1600 pM. Further, the IC50 in experiment [1] turned out to be 34000 pM; against hFAP, 650 pM.

The molecule `CC(O)c1ccc2nccc(C(=O)NCC(=O)N3CSC[C@H]3C#N)c2c1` (mixture of isomers) [Example 25, N-(2-((R)-4-Cyanothiazolidin-3-yl)-2-oxoethyl)-6-((RS)-1-hydroxyethyl)quinoline-4-carboxamide] yielded a Kd on hFAP (M39-A757) of 800 pM. For the same molecule, the values for the IC50 (in experiment [1]; on hFAP) were 440000 pM and 660 pM, respectively.

The molecule `Cn1ncc(Cc2ccc3nccc(C(=O)NCC(=O)N4CSC[C@H]4C#N)c3c2)n1` [Example 41, (R)—N-(2-(4-Cyanothiazolidin-3-yl)-2-oxoethyl)-6-((2-methyl-2H-1,2,3-triazol-4-yl)methyl)quinoline-4-carboxamide] displayed a Kd on hFAP (M39-A757) of 360 pM. Also, the half-inhibitory concentration (IC50) in experiment [1] amounted to 370000 pM; on hFAP, 88 pM.

In the case of `N#C[C@@H]1CSCN1C(=O)CNC(=O)c1ccnc2ccc(C(F)(F)F)cc12` [Example 17, (R)—N-(2-(4-Cyanothiazolidin-3-yl)-2-oxoethyl)-6-(trifluoromethyl)-quinoline-4-carboxamide], the Kd on hFAP (M39-A757) was 910 pM. Moreover, the IC50 worked out at 35000 pM in experiment [1] and 790 pM against hFAP.

The molecule `N#C[C@@H]1CSCN1C(=O)CNC(=O)c1ccnc2ccc(C3=CCOCC3)cc12` [Example 22, (R)—N-(2-(4-Cyanothiazolidin-3-yl)-2-oxoethyl)-6-(3,6-dihydro-2H-pyran-4-yl)quinoline-4-carboxamide] displayed an equilibrium dissociation constant (Kd) at hFAP (M39-A757) of 13 pM. The concentration for half-maximal inhibition (IC50) in experiment [1] is 560000 pM; against hFAP it was 240 pM.

`COCCOCc1ccc2nccc(C(=O)NCC(=O)N3CSC[C@H]3C#N)c2c1` [Example 31, (R)—N-(2-(4-Cyanothiazolidin-3-yl)-2-oxoethyl)-6-((2-methoxyethoxy)-methyl)quinoline-4-carboxamide]: the affinity at hFAP (M39-A757), expressed as Kd, was 400 pM. Further, the midpoint of inhibition in experiment [1], the IC50, lay at 910000 pM.

Take `CO[C@H]1C[C@](F)(c2ccc3nccc(C(=O)NCC(=O)N4CSC[C@H]4C#N)c3c2)C1` (single isomer, unassigned) [Example 63, N-(2-((R)-4-Cyanothiazolidin-3-yl)-2-oxoethyl)-6-((1r,3R*)-1-fluoro-3-methoxycyclobutyl)quinoline-4-carboxamide]: binding on hFAP (M39-A757) was put at a Kd of 97 pM. Besides, in experiment [1], the 50% inhibitory concentration (IC50) stood at 330000 pM.

`CO[C@H]1C[C@](F)(c2ccc3nccc(C(=O)NCC(=O)N4CSC[C@H]4C#N)c3c2)C1` (single isomer, unassigned) [Example 62, N-(2-((R)-4-Cyanothiazolidin-3-yl)-2-oxoethyl)-6-((1r,3R*)-1-fluoro-3-methoxycyclobutyl)quinoline-4-carboxamide]: binding at hFAP (M39-A757) was put at a Kd of 110 pM. This molecule also had an IC50 in experiment [1] of 520000 pM.

For the molecule `N#C[C@@H]1CSCN1C(=O)CNC(=O)c1ccnc2ccc(Cn3cccn3)cc12` [Example 80, (R)-6-((1H-Pyrazol-1-yl)methyl)-N-(2-(4-cyanothiazolidin-3-yl)-2-oxoethyl)quinoline-4-carboxamide], the equilibrium dissociation constant (Kd) at hFAP (M39-A757) is 300 pM. The same molecule registered an IC50 in experiment [1] of 290000 pM.
